Where two headings read alike, the source gives them in different places.
Experiments:
[1] = Liver microsome stability, dog; format: in vitro ADME; settings: liver microsomes
Protocol: (§1) • Compounds: Ketanserin, Formula 18, Formula 45 • Liver microsomes: Human liver microsomes (purchased from BioreclamationIVT); Dog, mouse, rat, and monkey liver microsomes (purchased from Xenotech)
(§2) Preparation of 500 μM compound solution: Add 5 μL of 10 mM compound solution and 95 μL of DMSO to an EP tube.
(§3) Preparation of solution containing 0.75 mg/mL liver microsomes and 1.5 μM compound: Add 1.5 μL of the 500 μM compound solution, 18.75 μL of the 20 mg/mL liver microsome solution, and 479.75 μL of PBS to an EP tube.
(§4) Preparation of 6 mM NADPH solution: Dissolve 5 mg of NADPH in 1 mL of PBS solution.
(§5) Add 30 μL of the solution containing 0.75 mg/mL liver microsomes and a concentration gradient of the compound to a 96-well plate. Add 15 μL of the 6 mM NADPH solution and 150 μL of a 1:1 acetonitrile:methanol solution containing an internal standard (IS). Vortex and centrifuge at 6,000 rpm for 10 min. 80 μL of the supernatant from each concentration sample is transferred to a 96-well plate containing 140 μL of pure water for LC/MS detection (injection volume of […]). […]
(§6) 80 μL of the supernatant from each well is transferred to a 96-well plate containing 140 μL of pure water for LC/MS detection (injection volume of […]). The compound concentration value is determined by comparing the corresponding mass spectrometry peak area with the standard curve. […]

[2] = molecular target: T1, CDK13 (Homo sapiens, UniProt Q14004); assay: Western blot degradation of CDK13 (Example 2); format: cell-based; design: degradation of CDK12/13 protein in leukemia cells KASUMI-1, MV4-11, and Jurkat; endogenous in cells; settings: HCT116, colorectal cancer cells
[3] = molecular target: CDK12 (Homo sapiens, UniProt Q9NYV4); assay: Western blot degradation of CDK12 (Example 2); format: cell-based; design: degradation of CDK12/13 protein in leukemia cells KASUMI-1, MV4-11, and Jurkat; endogenous in cells
Outline: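 Leukemia lines KASUMI-1, MV4-11, Jurkat, plus MDA-MB-231 for a concentration series, treated at 0.01–3 μM for 3–48 h at 37 °C against DMSO control. Lysates in 4% SDS; CDK12/13 band intensity normalized to β-Actin or GAPDH to give degradation rate.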

[4] = Liver microsome stability, human; format: in vitro ADME; settings: liver microsomes
Protocol: as §1, §2, §3, §4, §5, §6

[5] = Liver microsome stability, monkey; format: in vitro ADME; settings: liver microsomes
Protocol: as §1, §2, §3, §4, §5, §6

[6] = molecular target: T1, CDK13; assay: Western blot degradation of CDK13 (Example 2); format: cell-based; design: degradation of CDK12/13 protein in leukemia cells KASUMI-1, MV4-11, and Jurkat; endogenous in cells
[7] = Liver microsome stability, rat; format: in vitro ADME; settings: liver microsomes
Protocol: as §1, §2, §3, §4, §5, §6

CDK12, sequence (Q9NYV4 whole entry): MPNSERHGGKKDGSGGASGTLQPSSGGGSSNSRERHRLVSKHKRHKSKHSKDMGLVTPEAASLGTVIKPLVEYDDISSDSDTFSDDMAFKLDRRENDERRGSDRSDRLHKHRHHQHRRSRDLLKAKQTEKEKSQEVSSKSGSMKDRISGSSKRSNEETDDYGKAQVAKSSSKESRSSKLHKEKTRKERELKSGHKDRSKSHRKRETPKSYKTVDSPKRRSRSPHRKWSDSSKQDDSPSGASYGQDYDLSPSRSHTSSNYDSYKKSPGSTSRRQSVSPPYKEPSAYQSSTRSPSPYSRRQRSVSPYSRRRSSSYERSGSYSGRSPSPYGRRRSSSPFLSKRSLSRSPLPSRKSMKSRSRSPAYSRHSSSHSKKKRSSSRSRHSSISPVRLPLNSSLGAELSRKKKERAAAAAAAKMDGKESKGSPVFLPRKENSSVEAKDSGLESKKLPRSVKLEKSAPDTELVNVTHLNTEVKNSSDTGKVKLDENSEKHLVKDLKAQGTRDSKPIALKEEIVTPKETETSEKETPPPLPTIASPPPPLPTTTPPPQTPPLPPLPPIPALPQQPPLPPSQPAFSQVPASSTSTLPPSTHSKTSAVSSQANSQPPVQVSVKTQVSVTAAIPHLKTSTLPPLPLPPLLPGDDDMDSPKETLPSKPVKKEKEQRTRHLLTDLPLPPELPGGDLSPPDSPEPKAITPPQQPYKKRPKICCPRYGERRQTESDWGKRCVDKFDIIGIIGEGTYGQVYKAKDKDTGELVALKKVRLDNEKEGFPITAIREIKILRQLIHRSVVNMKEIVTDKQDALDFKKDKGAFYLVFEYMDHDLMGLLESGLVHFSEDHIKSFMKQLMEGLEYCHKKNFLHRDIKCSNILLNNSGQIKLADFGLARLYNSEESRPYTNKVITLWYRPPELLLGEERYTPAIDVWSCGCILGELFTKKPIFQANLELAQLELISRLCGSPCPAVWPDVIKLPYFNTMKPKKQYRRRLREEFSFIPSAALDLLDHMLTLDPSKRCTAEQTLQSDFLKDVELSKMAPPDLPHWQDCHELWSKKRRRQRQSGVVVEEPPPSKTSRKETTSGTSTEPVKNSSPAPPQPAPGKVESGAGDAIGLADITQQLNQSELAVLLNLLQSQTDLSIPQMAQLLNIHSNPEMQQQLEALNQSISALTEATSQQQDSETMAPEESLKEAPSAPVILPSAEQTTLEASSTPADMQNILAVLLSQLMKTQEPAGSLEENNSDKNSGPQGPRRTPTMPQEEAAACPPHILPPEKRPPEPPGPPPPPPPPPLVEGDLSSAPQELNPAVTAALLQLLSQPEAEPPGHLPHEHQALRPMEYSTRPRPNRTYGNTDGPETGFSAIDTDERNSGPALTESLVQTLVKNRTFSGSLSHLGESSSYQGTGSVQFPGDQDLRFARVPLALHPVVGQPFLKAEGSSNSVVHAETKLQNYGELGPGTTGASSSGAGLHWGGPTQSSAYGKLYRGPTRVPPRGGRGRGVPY
CDK12, sequence (O75909 whole entry partner): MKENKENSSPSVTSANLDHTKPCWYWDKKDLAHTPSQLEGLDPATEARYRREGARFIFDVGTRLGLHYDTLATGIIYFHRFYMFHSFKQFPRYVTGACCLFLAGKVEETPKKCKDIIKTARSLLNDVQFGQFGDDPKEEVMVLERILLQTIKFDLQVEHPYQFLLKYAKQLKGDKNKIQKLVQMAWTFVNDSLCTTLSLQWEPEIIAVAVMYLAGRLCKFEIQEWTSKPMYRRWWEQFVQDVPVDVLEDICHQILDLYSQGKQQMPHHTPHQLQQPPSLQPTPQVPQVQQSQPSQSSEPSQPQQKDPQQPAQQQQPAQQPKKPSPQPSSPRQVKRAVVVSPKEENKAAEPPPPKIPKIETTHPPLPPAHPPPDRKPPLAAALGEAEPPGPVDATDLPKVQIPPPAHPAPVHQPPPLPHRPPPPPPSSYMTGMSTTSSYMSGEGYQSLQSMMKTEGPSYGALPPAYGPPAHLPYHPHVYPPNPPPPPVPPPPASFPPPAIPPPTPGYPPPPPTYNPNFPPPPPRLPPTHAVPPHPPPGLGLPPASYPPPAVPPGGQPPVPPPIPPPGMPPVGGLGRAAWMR
T1 sequence (Q14004 whole entry): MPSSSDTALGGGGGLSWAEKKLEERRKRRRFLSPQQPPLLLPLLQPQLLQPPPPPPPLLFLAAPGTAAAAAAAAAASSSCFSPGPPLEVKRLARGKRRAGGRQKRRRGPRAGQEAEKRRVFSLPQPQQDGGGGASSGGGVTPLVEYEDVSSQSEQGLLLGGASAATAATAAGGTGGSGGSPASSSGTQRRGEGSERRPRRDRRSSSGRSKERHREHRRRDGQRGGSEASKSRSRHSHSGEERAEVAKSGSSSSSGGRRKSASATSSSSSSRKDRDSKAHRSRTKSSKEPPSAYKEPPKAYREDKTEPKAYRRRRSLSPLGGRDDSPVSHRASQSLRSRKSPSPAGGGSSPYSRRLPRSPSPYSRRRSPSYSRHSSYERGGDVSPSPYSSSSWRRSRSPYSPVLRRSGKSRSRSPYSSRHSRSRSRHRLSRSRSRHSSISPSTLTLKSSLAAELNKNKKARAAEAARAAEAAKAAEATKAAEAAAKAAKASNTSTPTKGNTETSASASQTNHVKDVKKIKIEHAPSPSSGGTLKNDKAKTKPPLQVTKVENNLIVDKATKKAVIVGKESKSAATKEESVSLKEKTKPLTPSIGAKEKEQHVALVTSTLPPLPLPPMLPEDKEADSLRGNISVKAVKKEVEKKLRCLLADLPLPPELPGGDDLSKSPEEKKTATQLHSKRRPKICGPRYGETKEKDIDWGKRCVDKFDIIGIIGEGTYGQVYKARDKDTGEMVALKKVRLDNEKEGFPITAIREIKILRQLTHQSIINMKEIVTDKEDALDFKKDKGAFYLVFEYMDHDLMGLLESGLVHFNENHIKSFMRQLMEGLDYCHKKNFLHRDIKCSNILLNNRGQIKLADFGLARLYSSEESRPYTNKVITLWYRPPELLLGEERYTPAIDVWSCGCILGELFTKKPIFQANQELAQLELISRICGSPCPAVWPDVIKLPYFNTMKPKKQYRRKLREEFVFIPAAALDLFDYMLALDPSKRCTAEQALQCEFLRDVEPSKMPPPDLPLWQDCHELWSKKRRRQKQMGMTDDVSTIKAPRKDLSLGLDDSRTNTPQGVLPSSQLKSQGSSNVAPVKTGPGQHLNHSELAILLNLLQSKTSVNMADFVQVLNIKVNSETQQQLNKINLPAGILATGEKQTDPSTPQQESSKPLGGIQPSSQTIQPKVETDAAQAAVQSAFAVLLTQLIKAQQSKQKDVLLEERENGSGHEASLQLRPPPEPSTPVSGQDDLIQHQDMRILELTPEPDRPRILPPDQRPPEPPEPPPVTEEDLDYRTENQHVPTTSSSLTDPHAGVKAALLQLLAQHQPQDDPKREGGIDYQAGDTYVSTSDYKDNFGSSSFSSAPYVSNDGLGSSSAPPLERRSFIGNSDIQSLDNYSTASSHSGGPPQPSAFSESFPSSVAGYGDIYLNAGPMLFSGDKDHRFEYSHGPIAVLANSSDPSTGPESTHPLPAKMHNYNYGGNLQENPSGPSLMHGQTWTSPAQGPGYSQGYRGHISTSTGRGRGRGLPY
T1 sequence (O75909 whole entry partner): as the sequence (O75909 whole entry partner) above

Cc1ncsc1-c1ccc([C@H](C)NC(=O)[C@@H]2C[C@@H](O)CN2C(=O)[C@@H](NC(=O)CN2CCN(c3ncc(-c4ccc(N(C(=O)NCc5ccccc5)[C@H]5CC[C@H](Nc6ccc(C#N)cn6)CC5)cc4)cn3)CC2)C(C)(C)C)cc1 [Formula 45]
half-life [1]: > 45 min | DC50 [2]: 24 nM | DC50 ([3]; DC50 classes, cell line not given, read-out: CDK12 degradation Activity): < 100 nM | degradation of CDK12 ([3]; FIGS. 2-9): has the strongest degradation effect | DC50 ([3]; HCT116, colorectal cancer cells, read-out: CDK12 DC50): 34 nM | DC50 ([3]; KASUMI-1, leukemia cells, read-out: CDK12 DC50): 28 nM | DC50 ([3]; MDA-MB-231, breast cancer cells, read-out: CDK12 DC50): 29 nM | DC50 ([3]; MV4-11, leukemia cells, read-out: CDK12 DC50): 30 nM | half-life [4]: > 45 min | half-life [5]: > 45 min | DC50 ([6]; DC50 classes, cell line not given, read-out: CDK13 degradation Activity): < 100 nM | degradation of CDK13 ([6]; FIGS. 2-9): has the strongest degradation effect | DC50 ([6]; KASUMI-1, leukemia cells, read-out: CDK13 DC50): 17 nM | DC50 ([6]; MDA-MB-231, breast cancer cells, read-out: CDK13 DC50): 18 nM | DC50 ([6]; MV4-11, leukemia cells, read-out: CDK13 DC50): 21 nM | half-life [7]: > 45 min

— patent US20260327204A1, “DEGRADERS OF CYCLIN-DEPENDENT KINASE 12/13, COMPOSITIONS, AND USES THEREOF” (ZHEJIANG UNIVERSITY, priority 2023, published 2026)
